The results in this text go back to patent US8076352B2, “Administration of carboline derivatives useful in the treatment of cancer and other diseases” (PTC Therapeutics, Inc., priority 2004, dated 2011).

The structures appear in SMILES notation.

Broadly, the EC50 is the concentration at which the effect is half-maximal. Read a low EC50 as a more potent agent.

The test has as its system hypoxia-inducible endogenous VEGF expression in HeLa cells. The test is described as follows: Hypoxia-inducible endogenous VEGF expression, VEGF ELISA of conditioned media (dose-response EC50). In kind it is cell-based. Summed up:
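Secreted VEGF was quantified by ELISA against a per-assay standard curve after HeLa cells spent 24-48 h in 1% O2, 5% CO2, N2 balance with or without compound. Across a series of, e.g., seven concentrations, percentage inhibition (max 100%, min 0%) gave EC50 and CC50 values.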
In general terms: In an ELISA, binding on a coated surface is turned into a signal by an enzyme label.

Setting [1] is: Homo sapiens, HeLa cells under hypoxic conditions.
The mark [2] stands for this setting: HeLa cells under hypoxic conditions.
The mark [3] stands for this setting: Homo sapiens, HeLa cells, hypoxic conditions (1% O2).

Take `COc1ccc(C2c3[nH]c4ccc(Br)cc4c3CCN2c2ncccn2)cc1` (stereo not shown) [Compound 329]: the EC50 under setting [1] is over 1 µM.
Take `CC(C)c1ccc(C2c3[nH]c4ccc(Cl)cc4c3CCN2C(=O)OCCF)cc1` (stereo not shown) [Compound 330]: the concentration for a half-maximal effect (EC50) under setting [1] was over 1 µM.
Same read-out and setting: the result for `O=C(Oc1ccc(Cl)cc1)N1CCc2c([nH]c3ccc(Cl)cc23)C1c1ccc(OCCN2CCOCC2)cc1` (stereo not shown) [Compound 331] reads over 1 µM; that for `COc1ccc(C2c3[nH]c4ccc(Cl)cc4c3CCN2C(=O)N2CCCC2)cc1` (stereo not shown) [Compound 333], 0.2 to 1 µM; that for `COc1ccc(C2c3[nH]c4ccc(Cl)cc4c3CCN2C(=O)N2CCOCC2)cc1` (stereo not shown) [Compound 334], over 1 µM.
Compound `CC(C)c1ccc(C2c3[nH]c4ccc(Cl)cc4c3CCN2C(=S)NC2CCCCC2)cc1` (stereo not shown) [Compound 335] displayed an EC50 under setting [1] of 0.04 to 0.2 µM.
Still for that read-out and setting: the result for `CCC(C)NC(=S)N1CCc2c([nH]c3ccc(Cl)cc23)C1c1ccc(C(C)C)cc1` (stereo not shown) [Compound 336] reads 0.2 to 1 µM; that for `CCCCCNC(=S)N1CCc2c([nH]c3ccc(Cl)cc23)C1c1ccc(C(C)C)cc1` (stereo not shown) [Compound 337], 0.04 to 0.2 µM.
Same read-out and setting: as for `Cc1ccc(NC(=S)N2CCc3c([nH]c4ccc(Cl)cc34)C2c2ccc(C(C)C)cc2)cc1` (stereo not shown) [Compound 338], the figure is 0.2 to 1 µM; as for `CCN(CC)C(=O)N1CCc2c([nH]c3ccc(Cl)cc23)C1c1ccc(OC)cc1` (stereo not shown) [Compound 339], over 1 µM; as for `COc1ccc(C2c3[nH]c4ccc(Cl)cc4c3CCN2C(=O)N(C)c2ccccc2)cc1` (stereo not shown) [Compound 340], over 1 µM.
Same read-out and setting: the result for `COc1ccc(C2c3[nH]c4ccc(C)cc4c3CCN2C(=O)Oc2ccc(Cl)cc2)cc1` (stereo not shown) [Compound 341] reads 0.04 to 0.2 µM; that for `COc1ccc(C2c3[nH]c4ccc(C)cc4c3CCN2c2ncccn2)cc1` (stereo not shown) [Compound 342], 0.04 to 0.2 µM.
`COc1ccc(C2c3[nH]c4ccc(C)cc4c3CCN2c2cnccn2)cc1` (stereo not shown) [Compound 343]: under setting [1], the half-maximal effective concentration (EC50) was over 1 µM.
On the same count and under the same terms, as for `Cc1ccc2[nH]c3c(c2c1)CCN(C(=O)Oc1ccc(Cl)cc1)C3c1ccc(C(C)C)cc1` (stereo not shown) [Compound 344], the figure is 0.008 to 0.04 µM; as for `Cc1ccc2[nH]c3c(c2c1)CCN(c1ncccn1)C3c1ccc(C(C)C)cc1` (stereo not shown) [Compound 345], 0.008 to 0.04 µM; as for `O=C(Oc1ccc(Cl)cc1)N1CCc2c([nH]c3ccc(Cl)cc23)C1c1ccc(S(=O)(=O)N2CCOCC2)cc1` (stereo not shown) [Compound 346], 0.008 to 0.04 µM.
On the same count and under the same terms, the result for `Cc1ccc(C2c3[nH]c4ccc(Cl)cc4c3CCN2C(=O)Oc2ccc(Cl)cc2)cc1` (stereo not shown) [Compound 347] reads under 0.008 µM; that for `CC(C)c1ccc(C2c3[nH]c4ccc(Cl)cc4c3CCN2C(=O)Oc2ccc(Cl)cc2)cc1` (stereo not shown) [Compound 348], under 0.008 µM; that for `O=C(Oc1ccc(Cl)cc1)N1CCc2c([nH]c3ccc(Cl)cc23)C1c1ccc2c(c1)OCO2` (stereo not shown) [Compound 349], 0.008 to 0.04 µM.
The same measure, in the same setting: the result for `N#Cc1ccc(C2c3[nH]c4ccc(Cl)cc4c3CCN2C(=O)Oc2ccc(Cl)cc2)cc1` (stereo not shown) [Compound 350] reads under 0.008 µM; that for `O=C(Oc1ccc(Cl)cc1)N1CCc2c([nH]c3ccc(Cl)cc23)C1c1ccc(Cl)cc1` (stereo not shown) [Compound 351], 0.008 to 0.04 µM.
With `CC(C)c1ccc(C2c3[nH]c4ccc(Cl)cc4c3CCN2c2ncccn2)cc1` (stereo not shown) [Compound 352], under setting [1], the EC50 lay in the range of 0.008 to 0.04 µM.
The same measure, in the same setting: as for `Cc1ccc(C2c3[nH]c4ccc(Br)cc4c3CCN2C(=O)Oc2ccc(Cl)cc2)cc1` (stereo not shown) [Compound 353], the figure is under 0.008 µM; as for `CC(C)c1ccc(C2c3[nH]c4ccc(Br)cc4c3CCN2C(=O)Oc2ccc(Cl)cc2)cc1` (stereo not shown) [Compound 354], under 0.008 µM.
On the same count and under the same terms, as for `COc1ccc(C2c3[nH]c4ccc(Br)cc4c3CCN2C(=O)Oc2ccc(Cl)cc2)cc1` (stereo not shown) [Compound 355], the figure is under 0.008 µM; as for `Clc1ccc2[nH]c3c(c2c1)CCN(c1ncccn1)C3c1ccc(OCCN2CCOCC2)cc1` (stereo not shown) [Compound 356], 0.2 to 1 µM; as for `Brc1ccc2[nH]c3c(c2c1)CCN(c1ncccn1)C3c1ccc(OCCN2CCOCC2)cc1` (stereo not shown) [Compound 357], 0.04 to 0.2 µM.
The same measure, in the same setting: as for `CCOC(=O)N1CCc2c([nH]c3ccc(Cl)cc23)C1c1ccc(S(C)(=O)=O)cc1` (stereo not shown) [Compound 358], the figure is 0.04 to 0.2 µM.
Regarding `COc1ccc(OC(=O)N2CCc3c([nH]c4ccc(Cl)cc34)C2c2ccc(S(C)(=O)=O)cc2)cc1` (stereo not shown) [Compound 359], the concentration for a half-maximal effect (EC50) under setting [1] was 0.04 to 0.2 µM.
Still for that read-out and setting: as for `CS(=O)(=O)c1ccc(C2c3[nH]c4ccc(Cl)cc4c3CCN2C(=O)Oc2ccc(Cl)cc2)cc1` (stereo not shown) [Compound 360], the figure is 0.008 to 0.04 µM.
As to `CS(=O)(=O)c1ccc(C2c3[nH]c4ccc(Cl)cc4c3CCN2C(=O)N2CCOCC2)cc1` (stereo not shown) [Compound 361], the EC50 under setting [2] was 0.008 to 0.04 µM.
Under setting [1], `CC(C)(C)OC(=O)N1CCc2c([nH]c3ccc(Cl)cc23)C1c1ccc2c(c1)OCO2` (stereo not shown) [Compound 362] came in with a 50% effective concentration (EC50) of under 0.008 µM.
The same measure, in the same setting: as for `Clc1ccc2[nH]c3c(c2c1)CCNC3c1ccc(OCCN2CCOCC2)cc1` (stereo not shown) [Compound 363], the figure is over 1 µM; as for `CCOC(=O)COc1ccc(C2c3[nH]c4ccc(Cl)cc4c3CCN2C(=O)OCC)cc1` (stereo not shown) [Compound 365], 0.04 to 0.2 µM.
The same measure, in the same setting: the result for `O=C(COc1ccc(C2c3[nH]c4ccc(Cl)cc4c3CCN2C(=O)Oc2ccccc2)cc1)Oc1ccccc1` (stereo not shown) [Compound 366] reads over 1 µM.
The same measure, in the same setting: the result for `COc1ccc(C2c3[nH]c4ccc(Cl)cc4c3CCN2C(=O)CCCl)cc1` (stereo not shown) [Compound 367] reads 0.008 to 0.04 µM; that for `COc1ccc(C2c3[nH]c4ccc(Cl)cc4c3CCN2C(=O)Cc2ccccc2)cc1` (stereo not shown) [Compound 368], 0.2 to 1 µM; that for `COC(=O)CCC(=O)N1CCc2c([nH]c3ccc(Cl)cc23)C1c1ccc(OC)cc1` (stereo not shown) [Compound 369], 0.2 to 1 µM.
Under setting [1], `COc1ccc(C2c3[nH]c4ccc(Cl)cc4c3CCN2C(=O)C(C)OC(C)=O)cc1` (stereo not shown) [Compound 370] had an EC50 of under 0.008 µM.
`COc1ccc(C2c3[nH]c4ccc(Cl)cc4c3CCN2C(=O)c2ccc(F)c(Cl)c2)cc1` (stereo not shown) [Compound 371] came in with a half-maximal effective concentration (EC50) under setting [1] of 0.04 to 0.2 µM.
Same read-out and setting: the result for `COc1ccc(C2c3[nH]c4ccc(Cl)cc4c3CCN2S(=O)(=O)c2ccccc2Cl)cc1` (stereo not shown) [Compound 372] reads over 1 µM; that for `COc1ccc(C2c3[nH]c4ccc(Cl)cc4c3CCN2C(=O)c2ccc(F)c(F)c2F)cc1` (stereo not shown) [Compound 373], 0.04 to 0.2 µM.
Same read-out and setting: as for `COc1ccc(C2c3[nH]c4ccc(Cl)cc4c3CCN2C(=O)Cc2cccs2)cc1` (stereo not shown) [Compound 374], the figure is 0.04 to 0.2 µM; as for `COc1ccc(C2c3[nH]c4ccc(Cl)cc4c3CCN2C(=O)C(C)Oc2ccccc2)cc1` (stereo not shown) [Compound 375], 0.2 to 1 µM; as for `COCC(=O)N1CCc2c([nH]c3ccc(Cl)cc23)C1c1ccc(OC)cc1` (stereo not shown) [Compound 376], 0.2 to 1 µM.
In turn, `COc1cccc(C2NCCc3c2[nH]c2ccc(Br)cc32)c1O` (stereo not shown) [Compound 377] returned a 50% effective concentration (EC50) under setting [1] of over 1 µM.
`Oc1ccccc1C1NCCc2c1[nH]c1ccc(Br)cc21` (stereo not shown) [Compound 378] yielded a half-maximal effective concentration (EC50) under setting [1] of over 1 µM.
The same measure, in the same setting: the result for `COc1ccc(C2NCCc3c2[nH]c2ccc(Br)cc32)cc1O` (stereo not shown) [Compound 379] reads over 1 µM; that for `Oc1c(F)cccc1C1NCCc2c1[nH]c1ccc(Br)cc21` (stereo not shown) [Compound 380], over 1 µM.
On the same count and under the same terms, the result for `Oc1ccc(Cl)cc1C1NCCc2c1[nH]c1ccc(Br)cc21` (stereo not shown) [Compound 381] reads over 1 µM; that for `Oc1ccc(Br)cc1C1NCCc2c1[nH]c1ccc(Br)cc21` (stereo not shown) [Compound 382], over 1 µM; that for `CCSC(=S)N1CCc2c([nH]c3ccc(Cl)cc23)C1c1ccc(OC)cc1` (stereo not shown) [Compound 383], under 0.008 µM.
The same measure, in the same setting: as for `COc1ccc(C2c3[nH]c4ccc(Cl)cc4c3CCN2C(=S)SC)cc1` (stereo not shown) [Compound 384], the figure is under 0.008 µM.
Turning to `COCCOC(=O)N1CCc2c([nH]c3ccc(Cl)cc23)C1c1ccc(OCCCn2ccnc2)cc1` (stereo not shown) [Compound 385], the EC50 under setting [1] lay in the range of 0.008 to 0.04 µM.
The same measure, in the same setting: the result for `COC(=O)N1CCc2c([nH]c3ccc(Cl)cc23)C1c1ccc(OCCCn2ccnc2)cc1` (stereo not shown) [Compound 386] reads under 0.008 µM.
Consider `COCCOc1ccc(C2c3[nH]c4ccc(Cl)cc4c3CCN2C(=O)Oc2ccc(F)cc2)cc1` (stereo not shown) [Compound 388], for which the half-maximal effective concentration (EC50) under setting [2] was under 0.008 µM.
`CCOC(=O)N1CCc2c([nH]c3ccc(Cl)cc23)C1c1cccc(CN2CCN(CCCN(C)C)CC2)c1` (stereo not shown) [Compound 389] showed a half-maximal effective concentration (EC50) under setting [1] of under 0.008 µM.
The same measure, in the same setting: as for `CCOC(=O)N1CCc2c([nH]c3ccc(Cl)cc23)C1c1ccc(OCCCn2cncn2)cc1` (stereo not shown) [Compound 390], the figure is under 0.008 µM; as for `O=C(Oc1ccc(Cl)cc1)N1CCc2c([nH]c3ccc(Cl)cc23)C1c1ccc(OCCCn2cncn2)cc1` (stereo not shown) [Compound 391], under 0.008 µM.
Regarding `CCCOC(=O)N1CCc2c([nH]c3ccc(Cl)cc23)C1c1ccc(OCCOC)cc1` (stereo not shown) [Compound 392], the concentration giving a half-maximal response (EC50) under setting [1] is under 0.008 µM.
The same measure, in the same setting: as for `CCOC(=O)N1CCc2c([nH]c3ccc(Br)cc23)C1c1cnc(SC)nc1` (stereo not shown) [Compound 393], the figure is under 0.008 µM; as for `CN(C)c1ncc(C2c3[nH]c4ccc(Br)cc4c3CCN2c2ncccn2)cn1` (stereo not shown) [Compound 394], under 0.008 µM.
Regarding `COC(=O)c1ccc(C2c3[nH]c4ccc(Cl)cc4c3CCN2C(=O)Oc2ccc(F)cc2)cc1` (stereo not shown) [Compound 395], the EC50 under setting [1] is under 0.008 µM.
The same measure, in the same setting: the result for `C=CCOc1ccc(C2c3[nH]c4ccc(Cl)cc4c3CCN2C(=O)OCC)cc1` (stereo not shown) [Compound 396] reads under 0.008 µM.
`O=C(Oc1ccc(F)cc1)N1CCc2c([nH]c3ccc(Br)cc23)C1c1ccc(C(F)(F)F)cc1` (stereo not shown) [Compound 397] displayed a concentration for a half-maximal effect (EC50) under setting [3] of under 0.008 µM.
The same measure, in the same setting: as for `Cc1ccc(C2c3[nH]c4ccc(Br)cc4c3CCN2C(=O)Oc2ccc(F)cc2)cc1` (stereo not shown) [Compound 398], the figure is under 0.008 µM.
Under setting [3], `C=CCOc1ccc(C2c3[nH]c4ccc(Cl)cc4c3CCN2C(=O)OCCF)cc1` (stereo not shown) [Compound 399] came in with an EC50 of under 0.008 µM.
Same read-out and setting: the result for `C=CCOc1ccc(C2c3[nH]c4ccc(Cl)cc4c3CCN2C(=O)Oc2ccc(Cl)cc2)cc1` (stereo not shown) [Compound 400] reads under 0.008 µM.
The same measure, in the same setting: as for `COc1ccc(C2c3[nH]c4ccc(Cl)cc4c3CCN2C(=O)Oc2ccc(F)cc2)cc1` (stereo not shown) [Compound 401], the figure is under 0.008 µM.
